# Results from patent US9526737B2, “Oxysterols for activation of hedgehog signaling, osteoinduction, antiadipogenesis, and Wnt signaling” (THE REGENTS OF THE UNIVERSITY OF CALIFORNIA, priority 2007, dated 2016).
# Tests used:
# Assay type in all cases: cell-based
# [1] = system: TCF/Lef transcriptional activity (Cyclin D1 promoter element); assay: Cyclin D1 promoter element luciferase reporter assay (Cyclin D1-luc); details: M2 cells, 24 hours; 5 μM SS or 40 mM LiCl
# Description: (§1) M2-10B4 cells at 70% confluence were transfected for 24 hours using FuGENE 6 Transfection Reagent (Roche Applied Science, Indianapolis, Ind.) according to manufacturer's instructions. The wild-type and mutant TCF/LEF binding site driven luciferase constructs (TBE4-luc and TBE4-luc-mut, repectively) were generous gifts from Dr. Baruch Frenkel (University of Southern California, Los Angeles, Calif.), and the Cyclin D1 promoter element-driven luciferase construct (Cyclin D1-luc) was a generous gift from Dr. Fanxin Long (Washington University, St. Louis, Mo.). Firefly luciferase values were normalized to Renilla luciferase activity and pEGFP-NI was used to evaluate transfection efficiency. Cells were then treated for 24, 48, or 72 hours with test agents before measuring luciferase activity using the Dual-Luciferase Reporter 1000 Assay System (Promega, Madison, Wis.) according to the manufacturer's instructions.
# M2 cells were transfected with a luciferase reporter driven by a Cyclin D1 promoter element (Cyclin D1-luc) and analyzed for their response to 5 μM SS, 40 mM LiCl, or control vehicle after 24 h of treatment (see FIG. 3B).
# Axin2 mRNA expression = assay: Q-RT-PCR for Axin2 mRNA expression; details: M2 cells, 8 and 48 hours; 5 μM SS, 200 ng/ml Shh, 40 mM LiCl
# Description: (§2) Total RNA was extracted with the RNA isolation kit from Stratagene (La Jolla, Calif.) according to the manufacturer's instructions. RNA was DNase-treated using the DNA-free kit from Ambion, Inc. (Austin, Tex.). 3 μg of RNA was reverse-transcribed using reverse transcriptase from Stratagene (La Jolla, Calif.) to make single stranded cDNA. The cDNAs were mixed with Qi SYBR Green Supermix from Bio-Rad Laboratories (Hercules, Calif.) for quantitative RT-PCR using a Bio-Rad I-cycler IQ quantitative thermocycler. All PCR samples were prepared in triplicate or quadruplicate. Each sample was added to duplicate wells of a 96-well plate. After 40 cycles of PCR, melt curves were analyzed in order to ensure primer specificity, and the identity of all PCR products were verified by sequencing and comparing with the complete mRNA sequence obtained from PubMed's GenBank. Fold changes in gene expression were calculated using the ΔΔCt method (14). All primers were designed using the Beacon Designer software from Bio-Rad Laboratories (Hercules, Calif.). […]
# M2 cells were treated with 5 μM SS, 200 ng/ml Shh, 40 mM LiCl, or control vehicle for 8 or 48 h. RNA was isolated and analyzed by Q-RT-PCR for Axing expression (See FIGS. 4A and 4B).
# [2] = system: Cyclin D1 mRNA expression; assay: Q-RT-PCR for Cyclin D1 mRNA expression; details: M2 cells
# Description: as §2
# M2 cells were treated with 5 μM SS, 200 ng/ml Shh, or control vehicle for 8 or 48 h. RNA was isolated and analyzed by Q-RT-PCR for Cyclin D1 expression (See FIGS. 4C and 4D).
# [3] = system: TCF/Lef transcriptional activity; assay: TCF/Lef luciferase reporter assay (TBE4-luc); details: M2 cells, 24 hours; 5 μM SS, 200 ng/ml Shh or 40 mM LiCl
# Description: as §1
# M2 cells were transfected with a luciferase reporter driven by 4 wild-type or mutant TCF/Lef DNA binding sites (TBE4-luc and TBE4-luc-mut, respectively) and analyzed for their response to 5 μM SS, 200 ng/ml Shh, 40 mM LiCl, or control vehicle after 24 h of treatment (see FIG. 3A).
structure (smiles),measurement,setting,value
"[Cl-].[Li+] [LiCl, lithium chloride]",Cyclin D1 promoter element TCF/Lef reporter activity,[1],activated
same,Axin2 mRNA expression,Axin2 mRNA expression,induced its expression at both time points
same,Cyclin D1 mRNA expression,[2]; 8 hours,did not induce
same,Cyclin D1 mRNA expression,[2]; 48 hours,inhibited its baseline expression
same,TCF/Lef reporter activity compared to untreated control cells,[3],significantly induced
